Consider four compounds from patent publication US20170088851A1, “METHODS FOR IMPROVING ABIOTIC STRESS RESPONSE” (The Regents of the University of California, priority 2011, published 2017).

Peptide text beside a SMILES is read from it. * marks the point of attachment. Cbz = O=C(OCc1ccccc1)*

The test system of assay [1] is N-end rule pathway of targeted proteolysis (NERP). Briefly: In vitro protein stability, heterologous rabbit reticulocyte lysate assay (TNT T7 Coupled Reticulocyte Lysate system, anti-HA immunoblot). The class given is biochemical. Particulars: for effect on in vitro stability of Arabidopsis Group VII ERFs: HA-tagged ERFs in reticulocyte lysate, 100 μM MG132 or 1 mM dipeptides; for MC-GUS degradation in the presence of the inhibitor: MC-GUS produced in rabbit reticulocyte lysate. The method, then:
Protein stability analyses. Full length cDNAs were PCR amplified from either Arabidopsis thaliana or Oryza sativa L. (cv. M202 (Sub1)). N-terminal mutations were introduced using a specific forward primer. For in vitro assays, cDNAs were cloned into a modified version of the pTNT vector (Promega) to produce C-terminal HA fusions. Stability assays were performed using the TNT T7 Coupled Reticulocyte Lysate system (Promega), essentially as described previously^23. For in vivo analysis of EIRE-HA proteins, cDNAs were cloned into pE2c, mobilized into pB2GW7 and transformed into Arabidopsis using the floral dip method. To Assess relative protein stability, equal amounts of total protein extracted from 7-day old T3 homozygous seedlings were analyzed by Western blot, and cDNA synthesized from total RNA was used as a template for semi-quantitative PCR.
In vitro analysis of protein stability: To generate Arabidopsis and rice protein-HA fusions driven by the T7 promoter, cDNAs were PCR amplified from Arabidopsis total cDNA or submerged rice cDNA (M202 (Sub1); as described^3 and ligated into a modified version of the pTNT […] expression vector (pTNT3xHA). N-terminal mutations were incorporated by changing the forward primer sequences accordingly (Table 1). Proteins were expressed in vitro using the TNT T7 Coupled Reticulocyte Lysate system (Promega) according to manufacturer's guidelines, using 500 ng plasmid template. Where appropriate, 100 μM MG132 or 1 mM dipeptides (arg-β-ala or ala-ala; Sigma-Aldrich) and […] Bestatin (Sigma-Aldrich) were added. Reactions were incubated at 30° C., and samples were taken at appropriate time points before mixing with protein loading dye to terminate protein synthesis. Equal amounts of each reaction were subjected to anti-HA immunoblot analysis.
Immunoblotting: Proteins resolved by SDS-PAGE were transferred to PVDF using a MiniTrans-Blot electrophoretic transfer cell (Bio-Rad). Membranes were probed with primary antibodies at the following titres: anti-HA (Sigma-Aldrich), 1:1000; anti-α-tubulin (Sigma-Aldrich), 1:5,000, or anti-ribosomal protein 5636, (1:5,000). HRP conjugated anti-mouse secondary antibody (Santa Cruz) was used at a titre of 1:10,000. Immunoblots were developed to film using ECL Western blotting substrate (Pierce). Alignment of MC-ERF proteins from Arabidopsis and Rice: Rice and Arabidopsis ERF proteins starting with the sequence MC- were aligned and phylogenetic relationships observed using CLUSTALW37.
We investigated the possibility that all Arabidopsis Group VII ERFs as well as rice SUB1A-1 were NERP substrates.

A further assay deals with HRE2. Briefly: Western blot of HRE2 protein levels in vivo after cPTIO treatment. Details: species or system Arabidopsis. Particulars: 35S CaMV promoter. The source says: FIG. 14D Stability of the physiological substrate HRE2 is controlled by NO. Western blot showing levels of HRE2 protein in-vivo (constitutive gene transcription produced from the 35S CaMV promoter).

For another assay, the system named is MC-GUS. The experiment in a line: Western analysis of MC-GUS protein levels in seedlings treated with cPTIO. The class given is in vivo, Arabidopsis. Conditions: WT Col-0 seedlings treated with cPTIO. The text has this:
FIG. 14C Stability of MC-GUS in Col-0 is related to NO.

The subject of the next assay is maplA mutant seeds. The experiment in a line: Seed sensitivity to ABA on germination in the presence of fumagillin. The class given is in vivo, Arabidopsis. The text has this: FIG. 13B Proteins initiating MC control seed sensitivity to ABA.

As to `CC(C)C[C@@H](C=O)NC(=O)[C@H](CC(C)C)NC(=O)[C@H](CC(C)C)NC(=O)OCc1ccccc1` [MG132] (Cbz-Leu-Leu-Leu-aldehyde), in assay [1], the “effect on in vitro stability of Arabidopsis Group VII ERFs” value is given as “stability was enhanced” and the “MC-GUS degradation in the presence of the inhibitor” value was “not degraded”.

As for `CC1(C)N([O])C(c2ccc(C(=O)O)cc2)=[N+]([O-])C1(C)C` [cPTIO], the “effect on HRE2 protein level” value with HRE2 is on record as “stabilises the protein”. In addition, the “effect on MC-GUS protein level” value in the assay with MC-GUS is reported as “MC-GUS protein accumulates”.

With `CO[C@@H]1[C@H](OC(=O)/C=C/C=C/C=C/C=C/C(=O)O)CC[C@]2(CO2)[C@H]1[C@@]1(C)O[C@@H]1CC=C(C)C` [fumagillin], in the assay with maplA mutant seeds, the “seed sensitivity to ABA when germinated in the presence of fumagillin” value was “hypersensitive to ABA”.

For the compound Arg-Ala, in assay [1], the “effect on in vitro stability of Arabidopsis Group VII ERFs” value was “stability was enhanced” and the “MC-GUS degradation in the presence of the inhibitor” value is given as “not degraded”.
